Assay results from US20210244686A1, “Novel Systems And Methods For The Therapeutic Use of Cannabinoids or Cannabinoid Analogs to Increase The Lipid Order of Cholesterol Containing Cell Membranes” (The Regents of the University of Colorado a body corporate, priority 2018, published 2021).

Legend:
Format in all cases: cell-based, human
[1] = tested on: SKNBE2 neuroblastoma cells; test: Toxicity profiling, percent death with and without cholesterol challenge; settings: 24 hrs of exposure; high doses
Source text: FIG. 15. Toxicity profiling.

[2] = tested on: SKNBE2 neuroblastoma cells; test: Flow cytometric analysis of rhodamine-glibenclamide staining in live cells
[3] = tested on: SK-N-BE(2) cells; test: Fluorometric total cellular cholesterol (Amplex Red Cholesterol Assay Kit); settings: orthogonal experiment
Source text: FIG. 11A-C. (A) Plots of 13C labelled (left) and total+labeled cholesterol (right) abundances measured in methanol extracts from vehicle/CBD treated cells. (B) A similar analysis for cholesterol precursors. (C) Fluorometric measurement of total cellular cholesterol from methanol extracts of SK-N-BE(2) cells using the Amplex Red Cholesterol Assay Kit.
These findings raise the question of whether CBD treatment leads to alterations in lipid and cholesterol metabolism (the latter pathway depicted in FIG. 3A). The present inventors used mass spectrometry-based lipidomics, a subset of metabolomics, to quantify the effect of CBD on the fluxes of key lipids and sterols. Vehicle and CBD exposed cells were fed ^13C labeled glucose for 24 hours and harvested using methanol extraction and mass spectrometry analysis. Cholesterol biosynthesis was analyzed by determining the level of incorporation of ^13C into biosynthetic intermediates. […] The effect of CBD on total cellular cholesterol was confirmed using a fluorogenic assay for cholesterol in an orthogonal experiment (FIG. 11B).

[4] = tested on: SK-N-BE(2) cells; test: Live cell confocal microscopy of NBD-cholesterol and lysotracker; settings: after 24 hours, only with NPC1 inhibitor U18666A and CBD 20 μM
Source text: One possible explanation for why CBD sensitizes cells to inhibitors of cholesterol trafficking and storage is that CBD increases the flux of cholesterol from the plasma membrane to the lysosome-ER transport pathway. When this flux is activated and hydroxy cholesterol is supplied in excess, the inability to efficiently store cholesterol may cause subcellular accumulation of cholesterol/hydroxycholesterol in organelles that normally maintain low cholesterol levels. To test this hypothesis, the inventor's repeated the live cell confocal microscopy experiments with SK-N-BE(2) cells stained with fluorescent cholesterol (NBD-cholesterol) and the lysosome dye lysotracker.
SK-N-BE(2) cells were seeded into fibronectin coated glass bottom 96 well plates (Matriplate) at a cell density of 40,000 cells/well using low background imaging media (FluoroBrite DMEM with all supplements described, above). At the time of seeding, nile red (ThermoFisher) was added at a final concentration of 100 ng/mL and NBD-cholesterol (ThermoFisher) was added at a final concentration of 10 μg/mL. […] Lipid droplets and their sizes were detected and quantified using the ImageJ Find Particles Function, and data was subsequently processed using Microsoft Excel. Error depicted represents the standard deviation calculated from three biological replicates. […]

[5] = tested on: SK-N-BE(2) cells; test: cells
Procedure: (§1) To efficiently design the multi-omics experiments, the present inventors exposed the neuroblastoma cell line SK-N-BE(2) to escalating doses of CBD at 24, 48, and 72 hours and determined the EC50 of toxicity of CBD to be greatest at 72 hours and at an approximate concentration of 20 μM (FIG. 1 B). To maximize the efficient use of the inventor's multi-omic resources, a large dose and time survey of the CBD response was conducted in a panel of transgenic SK-N-BE(2) and HaCaT keratinocyte cell lines, each expressing a genetically encoded förster resonance energy transfer (FRET) biosensor gene capable of reporting the activity of a cellular effector molecule/activity including, but not limited to: AMP kinase activity, Erk kinase activity, cytosolic ATP, glucose, lactate, pyruvate & glutamine, Ca^2+ in the ER & Cytosol, mTor kinase activity & TACE protease activity. […] The biosensor activity profiles as a function of CBD dose and time (FIGS. 9A-C) were analyzed for the EC50 of each biosensor activity at each time (FIG. 10). The result of these efforts outlined that the most robust dose of CBD for use in multi-omic experiments is 20 μM and that the kinetic profile of the CBD response begins in hours and persists for days.

[6] = tested on: endoplasmic reticulum in SKNBE2 and HaCaT keratinocyte cells; test: Confocal microscopy of rhodamine-glibenclamide staining, ER structure
Procedure: FIG. 16. Rhodamine-glibenclamide staining in live cells is visualized by confocal microscopy in live cells. ER structure is perturbed after 2 hours of exposure to CBD and o-1602, but not for o-1821 exposure.

[7] = tested on: SK-N-BE(2) and HaCaT keratinocyte cell lines; test: FRET biosensor profiling of CBD response; settings: CBD dose and time survey
Procedure: as §1
Stable transgenic biosensor expressing cell lines were made in HaCaT and SK-N-BE(2) cells. […]

SMILES: C=C(C)[C@@H]1CCC(C)=C[C@H]1c1c(O)cc(CCCCC)cc1O [CBD, cannabidiol]
- toxicity in cells challenged with a high cholesterol environment [1]: toxic
- cellular response similar to cholesterol drugs Atorvastatin and Ezetimibe ([2]; SKNBE2 neuroblastoma cells): low cholesterol response
- rhodamine-glibenclamide fluorescence ([2]; live cells, flow cytometry): Enhanced fluorescence
- effect on total cellular cholesterol, fluorogenic assay [3]: confirmed
- fluorescent cholesterol in lysosomes [4]: accumulates in labeled lysosomes
- EC50 ([5]; Homo sapiens, SKNBE2, SK-N-BE(2), greatest at 72 hours, approximate, read-out: EC50 of toxicity): ~20 µM
- doses that can induce cell death ([5]; after 24 hours): > 40 µM
- alteration of the structure of the endoplasmic reticulum ([6]; SKNBE2 and HaCaT keratinocyte cells): dramatically alters the structure of the endoplasmic reticulum
- ER structure ([6]; after 2 hours of exposure, live cells): perturbed
- biosensor activities across panel [7]: causes modulation of all biochemical pathways that were probed
